Measured values as given in ChEMBL document CHEMBL1137140, “Synthesis and biological evaluation of the major metabolite of atomoxetine: elucidation of a partial kappa-opioid agonist effect” (Bioorg Med Chem Lett, 2004).

Assays:
[1] = Inhibitory activity against Opioid receptor delta 1 expressed in HEK293 cells; format: cell-based, Homo sapiens
[2] = Inhibitory activity against Opioid receptor kappa 1 expressed in HEK293 cells; format: cell-based, Homo sapiens
[3] = Inhibitory activity against Opioid receptor mu 1 expressed in HEK293 cells; format: cell-based, Homo sapiens
[4] = target: Nociceptin receptor (Homo sapiens, UniProt P41146); experiment: Inhibitory activity against Opioid receptor like 1 expressed in HEK293 cells; format: cell-based
Sequence of Nociceptin receptor (P41146 whole entry): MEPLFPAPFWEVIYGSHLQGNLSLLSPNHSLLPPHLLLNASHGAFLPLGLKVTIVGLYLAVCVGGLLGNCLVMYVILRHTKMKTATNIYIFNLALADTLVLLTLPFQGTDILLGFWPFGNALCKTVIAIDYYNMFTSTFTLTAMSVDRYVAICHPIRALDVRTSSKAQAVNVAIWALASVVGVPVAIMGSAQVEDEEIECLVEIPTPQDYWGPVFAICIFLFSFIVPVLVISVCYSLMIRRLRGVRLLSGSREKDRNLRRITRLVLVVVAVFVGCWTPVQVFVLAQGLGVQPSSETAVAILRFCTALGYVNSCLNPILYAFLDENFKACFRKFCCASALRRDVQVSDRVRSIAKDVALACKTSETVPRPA

| IC50 [1] | IC50 [2] | IC50 [3] | IC50 [4] | SMILES |
| --- | --- | --- | --- | --- |
| 1.49 µM | 0.088 µM | 0.164 µM | > 5 µM | CNCC[C@@H](Oc1ccc(O)cc1C)c1ccccc1 |
| > 5 µM | 4.38 µM | 4.19 µM | > 5 µM | CNCC[C@@H](Oc1ccccc1C)c1ccccc1 [ATOMOXETINE] |
